Measurements taken from patent US8802597B2, “Herbicidal pyrimidines” (E I du Pont de Nemours and Company, priority 2003, dated 2014).
Read-outs that look alike come from different tables or passages of the source.

Legend:
Experiment in all cases: Test A pre/postemergence
Type in all cases: in vivo
[1] = system: barnyardgrass (Echinochloa crus-galli); conditions: for pest or weed control at 125 g/ha / pest or weed control at 500 g/ha: Echinochloa crus-galli, 240 h, read-out: Plant response rating, Barnyardgrass
Summary of the method: (§1)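 Seeds in loam–sand blend received preemergence directed soil spray and, concurrently, postemergence application (plants 2–10 cm, 1–2-leaf stage) of compound in non-phytotoxic solvent with surfactant. After about ten days in greenhouse, injury rated visually versus untreated controls, 0 (no effect) to 100 (complete control).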

[2] = system: morningglory (Ipomoea spp.); conditions: for pest or weed control at 125 g/ha / pest or weed control at 500 g/ha: Ipomoea, 240 h, read-out: Plant response rating, Morningglory
Summary of the method: as §1

[3] = system: redroot pigweed (Amaranthus retroflexus); conditions: for pest or weed control at 125 g/ha / pest or weed control at 500 g/ha: Amaranthus retroflexus, 240 h, read-out: Plant response rating, Pigweed
Summary of the method: as §1

[4] = system: crabgrass (Digitaria sanguinalis); conditions: for pest or weed control at 125 g/ha / pest or weed control at 500 g/ha: Digitaria sanguinalis, 240 h, read-out: Plant response rating, Crabgrass
Summary of the method: as §1

[5] = system: giant foxtail (Setaria faberi); conditions: for pest or weed control at 125 g/ha / pest or weed control at 500 g/ha: Setaria faberi, 240 h, read-out: Plant response rating, Foxtail, Giant
Summary of the method: as §1

[6] = system: velvetleaf (Abutilon theophrasti); conditions: for pest or weed control at 125 g/ha / pest or weed control at 500 g/ha: Abutilon theophrasti, 240 h, read-out: Plant response rating, Velvetleaf
Summary of the method: as §1

[7] = post-emergence, Postemergence, 125 g ai/ha, 0 to 100 scale (0 no effect, 100 complete control)
[8] = post-emergence, Postemergence, 500 g ai/ha, 0 to 100 scale (0 no effect, 100 complete control)
[9] = pre-emergence, Preemergence, 125 g ai/ha, 0 to 100 scale where 0 is no effect and 100 is complete control, approximately ten days
[10] = pre-emergence, Preemergence, 500 g ai/ha, 0 to 100 scale where 0 is no effect and 100 is complete control, approximately ten days
[11] = Postemergence, 125 g ai/ha, 0 to 100 scale (0 no effect, 100 complete control)
[12] = Postemergence, 500 g ai/ha, 0 to 100 scale (0 no effect, 100 complete control)
[13] = Preemergence, 125 g ai/ha, 0 to 100 scale where 0 is no effect and 100 is complete control, approximately ten days
[14] = Preemergence, 500 g ai/ha, 0 to 100 scale where 0 is no effect and 100 is complete control, approximately ten days

## NC(=O)c1nc(C2CC2)nc(N)c1Br [Compound 20]
[1]; [7]
  pest or weed control at 125 g/ha: 0%
[1]; [8]
  pest or weed control at 500 g/ha: 0%
[1]; [9]
  pest or weed control at 125 g/ha: 0%
[1]; [10]
  pest or weed control at 500 g/ha: 0%
[2]; [7]
  pest or weed control at 125 g/ha: 20%
[2]; [8]
  pest or weed control at 500 g/ha: 40%
[2]; [9]
  pest or weed control at 125 g/ha: 10%
[2]; [10]
  pest or weed control at 500 g/ha: 60%
[3]; [7]
  pest or weed control at 125 g/ha: 40%
[3]; [8]
  pest or weed control at 500 g/ha: 60%
[3]; [9]
  pest or weed control at 125 g/ha: 40%
[3]; [10]
  pest or weed control at 500 g/ha: 70%
[4]; [7]
  pest or weed control at 125 g/ha: 0%
[4]; [8]
  pest or weed control at 500 g/ha: 0%
[4]; [9]
  pest or weed control at 125 g/ha: 0%
[4]; [10]
  pest or weed control at 500 g/ha: 0%
[5]; [7]
  pest or weed control at 125 g/ha: 0%
[5]; [8]
  pest or weed control at 500 g/ha: 0%
[5]; [9]
  pest or weed control at 125 g/ha: 0%
[5]; [10]
  pest or weed control at 500 g/ha: 0%
[6]; [7]
  pest or weed control at 125 g/ha: 10%
[6]; [8]
  pest or weed control at 500 g/ha: 55%
[6]; [9]
  pest or weed control at 125 g/ha: 0%
[6]; [10]
  pest or weed control at 500 g/ha: 70%

## CS(=O)(=O)NC(=O)c1nc(C2CC2)nc(N)c1Cl [Compound 132]
[1]; [11]
  Plant response rating, Barnyardgrass: 0
[1]; [12]
  Plant response rating, Barnyardgrass: 10
[1]; [13]
  Plant response rating, Barnyardgrass: 0
[1]; [14]
  Plant response rating, Barnyardgrass: 0
[2]; [11]
  Plant response rating, Morningglory: 45
[2]; [12]
  Plant response rating, Morningglory: 50
[2]; [13]
  Plant response rating, Morningglory: 0
[2]; [14]
  Plant response rating, Morningglory: 0
[3]; [11]
  Plant response rating, Pigweed: 50
[3]; [12]
  Plant response rating, Pigweed: 65
[3]; [13]
  Plant response rating, Pigweed: 15
[3]; [14]
  Plant response rating, Pigweed: 65
[4]; [11]
  Plant response rating, Crabgrass: 5
[4]; [12]
  Plant response rating, Crabgrass: 10
[4]; [13]
  Plant response rating, Crabgrass: 0
[4]; [14]
  Plant response rating, Crabgrass: 0
[5]; [11]
  Plant response rating, Foxtail, Giant: 0
[5]; [12]
  Plant response rating, Foxtail, Giant: 5
[5]; [13]
  Plant response rating, Foxtail, Giant: 0
[5]; [14]
  Plant response rating, Foxtail, Giant: 0
[6]; [11]
  Plant response rating, Velvetleaf: 50
[6]; [12]
  Plant response rating, Velvetleaf: 60
[6]; [13]
  Plant response rating, Velvetleaf: 0
[6]; [14]
  Plant response rating, Velvetleaf: 5

## CCOC(OCC)c1nc(-c2ccc(I)cc2)nc(N)c1Cl [Compound 138]
[1]; [11]
  Plant response rating, Barnyardgrass: 0
[1]; [12]
  Plant response rating, Barnyardgrass: 0
[1]; [13]
  Plant response rating, Barnyardgrass: 0
[1]; [14]
  Plant response rating, Barnyardgrass: 0
[2]; [11]
  Plant response rating, Morningglory: 0
[2]; [12]
  Plant response rating, Morningglory: 20
[2]; [13]
  Plant response rating, Morningglory: 0
[2]; [14]
  Plant response rating, Morningglory: 0
[3]; [11]
  Plant response rating, Pigweed: 20
[3]; [12]
  Plant response rating, Pigweed: 35
[3]; [13]
  Plant response rating, Pigweed: 0
[3]; [14]
  Plant response rating, Pigweed: 0
[4]; [11]
  Plant response rating, Crabgrass: 0
[4]; [12]
  Plant response rating, Crabgrass: 0
[4]; [13]
  Plant response rating, Crabgrass: 0
[4]; [14]
  Plant response rating, Crabgrass: 0
[5]; [11]
  Plant response rating, Foxtail, Giant: 0
[5]; [12]
  Plant response rating, Foxtail, Giant: 0
[5]; [13]
  Plant response rating, Foxtail, Giant: 0
[5]; [14]
  Plant response rating, Foxtail, Giant: 0
[6]; [11]
  Plant response rating, Velvetleaf: 60
[6]; [12]
  Plant response rating, Velvetleaf: 70
[6]; [13]
  Plant response rating, Velvetleaf: 0
[6]; [14]
  Plant response rating, Velvetleaf: 0

## CCOC(=O)c1nc(-c2cccc(C(F)(F)F)c2)nc(N)c1Cl [Compound 107]
[1]; [11]
  Plant response rating, Barnyardgrass: 0
[1]; [12]
  Plant response rating, Barnyardgrass: 0
[1]; [13]
  Plant response rating, Barnyardgrass: 0
[1]; [14]
  Plant response rating, Barnyardgrass: 0
[2]; [11]
  Plant response rating, Morningglory: 0
[2]; [12]
  Plant response rating, Morningglory: 0
[2]; [13]
  Plant response rating, Morningglory: 0
[2]; [14]
  Plant response rating, Morningglory: 0
[3]; [11]
  Plant response rating, Pigweed: 10
[3]; [12]
  Plant response rating, Pigweed: 10
[3]; [13]
  Plant response rating, Pigweed: 0
[3]; [14]
  Plant response rating, Pigweed: 0
[4]; [11]
  Plant response rating, Crabgrass: 0
[4]; [12]
  Plant response rating, Crabgrass: 5
[4]; [13]
  Plant response rating, Crabgrass: 0
[4]; [14]
  Plant response rating, Crabgrass: 5
[5]; [11]
  Plant response rating, Foxtail, Giant: 0
[5]; [12]
  Plant response rating, Foxtail, Giant: 35
[5]; [13]
  Plant response rating, Foxtail, Giant: 0
[5]; [14]
  Plant response rating, Foxtail, Giant: 0
[6]; [11]
  Plant response rating, Velvetleaf: 35
[6]; [12]
  Plant response rating, Velvetleaf: 65
[6]; [13]
  Plant response rating, Velvetleaf: 0
[6]; [14]
  Plant response rating, Velvetleaf: 10

## CCOC(=O)c1nc(-c2ccc3c(c2)OCO3)nc(N)c1Br [Compound 68]
[1]; [7]
  pest or weed control at 125 g/ha: 0%
[1]; [8]
  pest or weed control at 500 g/ha: 0%
[1]; [9]
  pest or weed control at 125 g/ha: 0%
[1]; [10]
  pest or weed control at 500 g/ha: 0%
[2]; [7]
  pest or weed control at 125 g/ha: 15%
[2]; [8]
  pest or weed control at 500 g/ha: 35%
[2]; [9]
  pest or weed control at 125 g/ha: 0%
[2]; [10]
  pest or weed control at 500 g/ha: 0%
[3]; [7]
  pest or weed control at 125 g/ha: 50%
[3]; [8]
  pest or weed control at 500 g/ha: 55%
[3]; [9]
  pest or weed control at 125 g/ha: 0%
[3]; [10]
  pest or weed control at 500 g/ha: 15%
[4]; [7]
  pest or weed control at 125 g/ha: 0%
[4]; [8]
  pest or weed control at 500 g/ha: 0%
[4]; [9]
  pest or weed control at 125 g/ha: 0%
[4]; [10]
  pest or weed control at 500 g/ha: 0%
[5]; [7]
  pest or weed control at 125 g/ha: 0%
[5]; [8]
  pest or weed control at 500 g/ha: 0%
[5]; [9]
  pest or weed control at 125 g/ha: 0%
[5]; [10]
  pest or weed control at 500 g/ha: 0%
[6]; [7]
  pest or weed control at 125 g/ha: 60%
[6]; [8]
  pest or weed control at 500 g/ha: 60%
[6]; [9]
  pest or weed control at 125 g/ha: 5%
[6]; [10]
  pest or weed control at 500 g/ha: 10%

## CC(C)N.Nc1nc(C2CC2)nc(C(=O)O)c1Cl [Compound 144]
[1]; [11]
  Plant response rating, Barnyardgrass: 60
[1]; [12]
  Plant response rating, Barnyardgrass: 90
[1]; [13]
  Plant response rating, Barnyardgrass: 65
[1]; [14]
  Plant response rating, Barnyardgrass: 80
[2]; [11]
  Plant response rating, Morningglory: 85
[2]; [12]
  Plant response rating, Morningglory: 95
[2]; [13]
  Plant response rating, Morningglory: 85
[2]; [14]
  Plant response rating, Morningglory: 95
[3]; [11]
  Plant response rating, Pigweed: 85
[3]; [12]
  Plant response rating, Pigweed: 100
[3]; [13]
  Plant response rating, Pigweed: 75
[3]; [14]
  Plant response rating, Pigweed: 85
[4]; [11]
  Plant response rating, Crabgrass: 40
[4]; [12]
  Plant response rating, Crabgrass: 80
[4]; [13]
  Plant response rating, Crabgrass: 75
[4]; [14]
  Plant response rating, Crabgrass: 95
[5]; [11]
  Plant response rating, Foxtail, Giant: 70
[5]; [12]
  Plant response rating, Foxtail, Giant: 80
[5]; [13]
  Plant response rating, Foxtail, Giant: 35
[5]; [14]
  Plant response rating, Foxtail, Giant: 80
[6]; [11]
  Plant response rating, Velvetleaf: 95
[6]; [12]
  Plant response rating, Velvetleaf: 100
[6]; [13]
  Plant response rating, Velvetleaf: 75
[6]; [14]
  Plant response rating, Velvetleaf: 85
